Experiments:
hES cells = experiment: Low-density real-time cell index monitoring (RT-CES impedance reader); format: cell-based, human; details: for time after plating at which cell index rises above background / expansion detectable: 50 μM each factor; for time after plating at which cell index rises above background / expansion detectable / lowest concentration that elicited an effect: StemPro hESC SFM; for lowest concentration that elicited an effect: titration
Protocol: FIG. 4. Titration of NE and ACh using the RT-CES impedance reader. 1000 hES cells/well were plated in StemPro® hESC SFM containing the indicated concentrations of small molecules (in μM). In such an assay, the timing of when the cell index rises is associated with the proportion of cells that survive and expand at low density.
FIG. 5. Combined effects of small molecules compound combinations in low cell density assays. (A) 1000 hES cells/well were plated in StemPro® hESC SFM containing small molecules at 50 μM (NE, ACh, Adenosine, GABA) or 10 μM (Y27632). The assay was carried out over 5 days using the RT-CES system.
FIG. 6. […] 1000 hES cells/well were plated in StemPro® hESC SFM containing Heregulin, IGF1 and Activin (HIA) and the indicated small molecules. […] Compounds were tested at 10 μM. The DMSO trace is an average of 8 wells. […] Compounds were tested at the indicated concentrations.
FIG. 7. […] 1000 hES cells/well were plated in StemPro® hESC SFM containing the indicated combinations of growth factors and small molecules. Heregulin (H), LR3-IGF1 (I), Activin (A).
FIG. 9. Low-density RT-CES assays of combinations of growth factors and neurotransmitters. 1000 hES cells/well were plated in StemPro® hESC SFM containing the indicated combinations of growth factors and small molecules. Heregulin (H), LR3-IGF1 (I), Activin (A). Small molecules were tested at 50 μM.
Furthermore, pluripotent cells can also be grown in 96-well culture devices that provide real-time measurements of impedance, which can be used to measure cell proliferation and viability using the RT-CES™ methods from ACEA Biosciences, Inc. (www (dot) aceabio (dot) com). Such an approach would enable a label-free identification and quantification of subtle or immediate effects on differentiable cells, as well as measurements of proliferation, apoptosis and changes to morphology, in real time.
To examine more closely the potency of individual neurotransmitters and determine if synergies exist between different factors, low-density assays were performed in real time using an impedance reader. The ACEA biosciences RT-CES system uses 96-well trays that contain embedded microsensors to monitor changes in electrical impedance, which is translated into a measure of cell index. Any overt alteration within a cell culture can be detected, including but not limited to cell proliferation, migration, cell spreading, apoptosis, differentiation and the like. […] Once an undifferentiated culture becomes confluent the cell index remains high, but tends to go down and up (scallop) between daily feedings. Conversely, differentiation is typically indicated by the appearance of distinctive patterns, such as peaks and troughs in the cell index, likely indicative of an epithelial-to-mesenchymal transition, flattening, cell migration, apoptosis or similar differentiation and growth related changes.
Human ES cells were plated at low density, 1000 cells/well, in RT-CES trays and cultured for 10 days (FIG. 4). Cells were plated directly in StemPro® hESC SFM containing carrier control (DMSO), NE, or ACh.

[1] = tested on: hES cells (e.g., BGO2 cells); experiment: Low-density colony forming / colony counting assay (AP+ colonies); format: cell-based, human
Protocol: FIG. 2. Low density plating assay of hES cells (e.g., BGO2 cells). 10000 cells/well were plated in 6-well trays in StemPro® hESC SFM (Life Technologies) medium and stained with alkaline phosphatase (AP+) after 7 days. Y (Y27632), ACh (acetylcholine), NMDA (N-methyl-D-aspartic acid), NE ((−)-Norepinephrine), NE.Bit ((±)-Norepinephrine (+)-bitartrate). Compounds were added at 10 or 50 μM as indicated.
FIG. 3. Low density plating assay of hES cells. (A) 200-10000 cells/well were plated in […] trays in StemPro® hESC SFM medium, or StemPro® hESC SFM +50 μM NE, or +50 μM ACh, and stained with alkaline phosphatase (AP+) after 8 days. […] ACh (acetylcholine), NE ((±)-Norepinephrine (+)-bitartrate). […]
About 10^4 hES cells/well were plated in 6-well trays in StemPro® hESC SFM, in the presence of different compounds and cultured for about 7 days. The cultures were then fixed, stained for alkaline phosphatase activity and colonies were counted (FIG. 2). […] The (±)-Norepinephrine (+)-bitartrate salt was used for all subsequent experiments involving norepinephrine (NE) unless specifically described otherwise.
A similar colony counting experiment was performed using a range of cell densities (FIG. 3). […] See Robins and Schulz 2009, supra. […]

| Structure (SMILES) | effect on low-density survival/proliferation (hES cells; 1 μM, 1000 cells/well, 10 days) | survival and expansion at low density, single factors and two-factor combinations (hES cells; 50 μM (NE, ACh, Adenosine, GABA) or 10 μM (Y27632), 1000 cells/well, 5 days) | time after plating at which cell index rises above background / expansion detectable (hES cells; 1000 cells/well) | time to apparent confluence (hES cells; 70 μM, 1000 cells/well) [days] | time to apparent confluence (hES cells; 100 μM, 1000 cells/well) [days] | time at which increases in cell index were first detected (hES cells; 5, 10 and 50 μM, 1000 cells/well) [days] | survival/expansion on addition of neurotransmitter (hES cells; HAI or HI background, 1000 cells/well) | survival/expansion (hES cells; StemPro hESC SFM HI background) | rises in impedance / survival and expansion with neurotransmitters (hES cells; small molecules 50 μM, 1000 cells/well, growth factor combinations) | lowest concentration that elicited an effect (hES cells; 1000 cells/well) [µM] | colonies detected compared to StemPro hESC SFM medium alone ([1]; 50 μM, 200-10000 cells/well, 8 days) | fewest plated cells per well at which colonies were observed ([1]; 50 μM, 8 days) [plated cells] | support of colony formation at low density ([1]; 10^4 cells/well, StemPro hESC SFM, 7 days, compounds at 10 or 50 μM) |
| --- | --- | --- | --- | --- | --- | --- | --- | --- | --- | --- | --- | --- | --- |
| NCC(O)c1ccc(O)c(O)c1 (racemic) [NE, (±)-Norepinephrine (+)-bitartrate] | did not appear to affect low-density survival/proliferation | effective survival and expansion | about 3 days | ~9 | ~10 | ~6.5 | substantially improved survival/expansion | maximal survival/expansion | detected much earlier | 5 | More than four times as many colonies | 1000 | supported elevated colony formation |
| CC(=O)OCC[N+](C)(C)C [ACh, acetylcholine] |  |  | about 3 days |  |  |  |  |  |  | 5 |  | 500 |  |
